# Laboratory results taken from PubChem BioAssay (NCI).
# Several values for one entry are separate records, joined by “and”; a condition that tells them apart may be missing. Identical values can stand only once.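 Compound exposure: 48 hours, 5 concentrations, 96-well plates. Here, GI50 denotes the concentration required for 50% inhibition of growth. TGI marks complete inhibition of growth.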
# Columns and labels:
# Assay in all cases: growth of human tumour cells (NCI), 48 h
# EKVX NSCLC = test system: EKVX NSCLC
# LOX IMVI melanoma = test system: LOX IMVI melanoma
# UACC-257 melanoma = test system: UACC-257 melanoma
# SK-MEL-2 melanoma = test system: SK-MEL-2 melanoma
# RXF 393 renal = test system: RXF 393 renal
# M14 melanoma = test system: M14 melanoma
# BT-549 breast = test system: BT-549 breast
# MDA-MB-231 breast = test system: MDA-MB-231 breast
# HS 578T breast = test system: HS 578T breast
# DU-145 prostate = test system: DU-145 prostate
Structure (SMILES),TGI (EKVX NSCLC) [µM],TGI (LOX IMVI melanoma) [µM],TGI (UACC-257 melanoma) [µM],TGI (SK-MEL-2 melanoma) [µM],TGI (RXF 393 renal) [µM],GI50 (EKVX NSCLC) [µM],GI50 (LOX IMVI melanoma) [µM],GI50 (UACC-257 melanoma) [µM],GI50 (SK-MEL-2 melanoma) [µM],GI50 (M14 melanoma) [µM],TGI (M14 melanoma),GI50 (RXF 393 renal) [µM],GI50 (BT-549 breast) [µM],TGI (BT-549 breast),GI50 (MDA-MB-231 breast) [µM],TGI (MDA-MB-231 breast) [µM],GI50 (HS 578T breast) [µM],TGI (HS 578T breast) [µM],GI50 (DU-145 prostate) [µM],TGI (DU-145 prostate) [µM]
O=C(O)C(CP(=O)(O)O)=C(Cl)Cl,> 100,> 100,> 100,> 100,> 100,,,,,,,,,,,,,,,
CC(=O)[CH-]C(=O)c1ccccc1.CC(=O)[CH-]C(=O)c1ccccc1.CC[O-].CC[O-].[Zr+4],> 100,> 100,> 100,> 100,> 100,91.6,> 100,> 100,> 100,> 100,> 100 µM,> 100,,,,,,,,
COc1cc(/C=C2/C(=O)N(C(=O)OC(C)C)C(Cc3cc(OC)c(OC)c(C)c3OC)C(=O)N2Cc2ccccc2)c(OC)c(C)c1OC (centres undefined),> 100,> 100,> 100,> 100,> 100,,,,,,> 100 µM,,,,,,,,,
Cc1c(Cl)ccc2c1NC(=O)C2(O)C(C(=O)c1ccccc1)c1ccccc1 (centres undefined),> 100,> 100,89,> 100,73.8,,,,,,> 100 µM,,,,,,,,,
COc1ccc(C(=O)C(c2ccc(OC)cc2)C2(O)C(=O)Nc3ccccc32)cc1 (centres undefined),> 100,> 100,> 100,> 100,,,,,,,> 100 µM,,,,,,,,,
O=S1c2ccccc2N=C(c2ccc3ccccc3c2)CC1C1=CC=CCC1 (centres undefined),42.8,30.8,34.8,40.5,30.4,,,,,,35.6 µM,,,,,,,,,
COc1cc(/C=C2\[C@H]3c4c(c(OC)c(C)c(OC)c4OC)C[C@@H](C(=O)N2Cc2ccccc2)N3C(=O)OCC(C)C)c(OC)c(C)c1OC,> 100,> 100,> 100,> 100,> 100,,,,,,> 100 µM,,,,,,,,,
Cc1cc(O)cc2oc(=O)c3c(O)cc(O)cc3c12,75.1,48.1,> 100,> 100,54.5,,,,,,> 100 µM,,,,,,,,,
COc1cc2c3c(n(CCCCOC(=O)C(F)(F)F)c(=O)c2cc1OC)-c1cc2c(cc1C3=O)OCO2,> 100,> 100,> 100,> 100,> 100,> 100,> 100,> 100,> 100,,,> 100,> 100,> 100 µM,31.9,> 82.2,> 93.1,> 100,> 80,> 100
CC(=O)N1N=C2/C(=C/c3ccccc3)CC(C)CC2C1c1ccccc1 (centres undefined),27.3,29.9,32.6,46.3,> 100,11.9,13.9,16.5,18.7,,,25.6,15.6,33.1 µM,14.2,31.8,15.4,34.6,16.1,33.5
COc1cc(C2=NN(C)C(c3ccc([N+](=O)[O-])o3)C2)cc(OC)c1OC (centres undefined),> 100,> 100,> 100,> 100,,,,,,,> 100 µM,,,,,,,,,
CN(C)CCNC(=O)c1cc2ccccc2c2nc3ccccc3nc12,7.37,1.88,3.09,2.81,2.33,,,,,,,,,,,,,,,
Cc1cc(NS(=O)(=O)c2ccc(N=Nc3cc(N=Nc4ccc(S(=O)(=O)Nc5cc(C)nc(C)n5)cc4)c4c(NC(=O)C(Cl)Cl)cccc4c3OC(=O)C(Cl)Cl)cc2)nc(C)n1 (tested in a mixture with another compound),53.5,34.3,70.2,81.1,38.7,,,,,,70.2 µM,,,,,,,,,
COc1ccc2c(=O)c(C)c(-c3ccccc3)oc2c1CN(C)C,> 100,> 100,> 100,,> 100,,,,,,> 100 µM,,,,,,,,,
CCOC(=O)C12CCCC1(O)N(NC(=O)c1ccccc1)C(C)=C2C(=O)OC (centres undefined),> 100,> 100,> 100,> 100,,,,,,,> 100 µM,,,,,,,,,
C/C(=C\C(C)COCc1ccccc1)[C@H](COCc1ccccc1)OCc1ccccc1 (some centres undefined),> 100,> 100,,> 100,> 100,,,,,,> 100 µM,,,,,,,,,
Cc1ccc(NC(=O)C(=O)C2C(=O)N(c3ccccc3)N=C2N)cc1C (centres undefined),> 100,,> 100,,,,,,,,> 100 µM,,,,,,,,,
COc1ccc(N(CC(=O)NCCC[Te]c2ccccc2)C(=O)c2ccccc2)cc1,5.27,14.3,,15.3,30.3,0.407,3.69,,4.19,4.21,15.4 µM,12,2.39,8.68 µM,2.08,4.76,2.97,8.41,3.9,13.9
COc1cc2nc3sc(C(=O)Nc4ccc(C(=O)OC(C)C)cc4)c(C(=O)Nc4ccc(Cl)cc4C)n3c(=O)c2cc1OC,> 100,34.4,93.2,> 100,,22.8,11.1,18.4,> 100,,,,1.67,20 µM,11.2,38.4,1.6,7.7,1.25,11.4
O=S(=O)(/C=C/c1ccc(Cl)cc1Cl)Cc1ccccc1CS(=O)(=O)/C=C/c1ccc(Cl)cc1Cl,> 100,> 100,> 100,> 100,> 100,,,,,,> 100 µM,,,,,,,,,
O=c1cc(-c2cccc(C(F)(F)F)c2)[nH]c2cc3c(cc12)OCO3,50,,,3.34,,,,,,0.41,50 µM and > 100 µM,,0.359,50 µM and > 100 µM,,30.1,,17.5,,
CCOC(C)C(/C=N/NC(N)=S)=NNC(N)=S (centres undefined),> 100,> 100,> 100,> 85.3,,,,,,,,,,,,,,,,

Structure (SMILES),TGI (EKVX NSCLC) [µM],TGI (LOX IMVI melanoma) [µM],TGI (UACC-257 melanoma) [µM],TGI (SK-MEL-2 melanoma) [µM],TGI (RXF 393 renal) [µM],GI50 (EKVX NSCLC) [µM],GI50 (LOX IMVI melanoma) [µM],GI50 (UACC-257 melanoma) [µM],GI50 (SK-MEL-2 melanoma) [µM],GI50 (M14 melanoma) [µM],TGI (M14 melanoma),GI50 (RXF 393 renal) [µM],GI50 (BT-549 breast) [µM],TGI (BT-549 breast),GI50 (MDA-MB-231 breast) [µM],TGI (MDA-MB-231 breast) [µM],GI50 (HS 578T breast) [µM],TGI (HS 578T breast) [µM],GI50 (DU-145 prostate) [µM],TGI (DU-145 prostate) [µM]
O=c1cccccc1NCCOCCNc1cccccc1=O,> 100,> 100,> 100,> 100,,,,,,,> 100 µM,,,,,,,,,
O=c1/c(=C/c2cccc([N+](=O)[O-])c2)sc2nc3ccccc3n12,> 100,> 100,> 100,> 100,> 100,,,,,,> 100 µM,,,,,,,,,
Cc1nc(Cl)nc(Cl)c1C,> 100,> 100,> 100,> 100,> 100,,,,,,> 100 µM,,,> 100 µM,,,,> 100,,
CCC[CH2][Sn]1([CH2]CCC)[O]C(=O)c2cc(I)cc(I)c2[O]1,3.4,2.39,2.55,1.94,1.97,1.35,0.8,1.24,0.491,1.66,3.17 µM,0.559,,,,,,,,
CC1=CC(=NC(=O)CBr)C=C/C1=N\S(=O)(=O)c1ccccc1,,3.24,,16,3.89,,1.68,,4.04,3.26,13.9 µM,1.77,3.15,10.6 µM,2.48,6.42,5.03,35.2,3.63,12.2
COC(=O)C1=C2CCC(=O)[C@@]2(C)C(OC(C)=O)C=CC1 (some centres undefined),> 100,,> 100,> 100,> 100,,,,,,> 100 µM,,,,,,,,,
COc1ccccc1OCC(=O)Nc1sc2c(c1C(N)=O)CCC2,> 100,> 100,,68,,> 100,> 100,,,> 100,> 100 µM,,> 100,> 100 µM,> 100,> 100,> 100,> 100,> 100,> 100
CC(C)=CCC[C@H](C)[C@@H]1CC[C@]2(C)C3CC[C@]4(OC4(C)C)C(CCCO)[C@]3(C)CC[C@@]12C (some centres undefined),50.7,16.5,59.9,,37.6,20.7,0.18,24.1,,32.1,> 100 µM,18.3,26,51.7 µM,20.5,43.3,24.4,58.5,32.9,> 100
Oc1ccccc1-c1nn(CNc2cccc(Cl)c2)c(=S)o1,> 100,,> 100,> 100,> 100,67.2,,> 100,> 100,35.8,> 100 µM,82.4,94.4,> 100 µM,60.2,> 100,69.1,> 100,,
Cc1[nH]c2ccccc2c1C1Cc2ccccc2N1C(=O)/C=C/C=C/c1ccccc1 (centres undefined),> 100,> 100,> 100,> 100,> 100,,,,,,> 100 µM,,,,,,,,,
CS(=O)(=O)NNS(=O)(=O)c1cccc([N+](=O)[O-])c1,> 100,> 100,> 100,> 100,> 100,,,,,,> 100 µM,,,,,,,,,
Oc1ccc(-c2nnc3sc(-c4ccc(F)c(Oc5ccccc5)c4)nn23)cc1,> 100,> 100,> 100,> 100,25.3,34.8,36.7,> 100,> 100,43.6,> 100 µM,7.47,,,16.4,47.4,19.8,51.4,35,> 100
Cc1nn(-c2nc3ccccc3s2)c(C)c1Oc1ccccc1O,22.3,16.9,14.7,,8.38,10.4,2.87,3.64,,11.8,24.8 µM,3.09,12,25.5 µM,10.8,25.9,10.3,25.2,7.17,20.1
CC1(C)COC(C23C4C5C2C2C3C4C52I)=N1 (centres undefined),> 100,,> 100,,> 100,,,,,,> 100 µM,,,,,,,,,
COc1ccc(C(=O)OCC2OC(n3cnc4c(=S)nc[nH]c43)C(OC(=O)c3ccc(OC)cc3)C2OC(=O)c2ccc(OC)cc2)cc1 (centres undefined),,,> 100,> 100,,,,,,,> 100 µM,,,,,,,,,
[O-]c1c2c(nn1-c1ccccc1)c1ccccc1c[n+]2Cc1ccccc1,> 100,> 100,> 100,> 100,7.33,,,,,,> 100 µM,,,,,,,,,
Cc1cc2c(cc1Cl)SC1=CC(=O)N(c3ccccc3)C1=NS2(=O)=O,> 100,61.1,> 100,> 100,> 100,> 100,26.2,51.5,51.4,21,42.8 µM,> 100,30,65.3 µM,43.7,> 100,,,59.4,> 100
CC1CC2(C)ON=C(c3ccccc3)N2c2ccccc2S1 (centres undefined),,50.1,,,,29.4,22,36.8,,31.7,83.2 µM,,24.8,67.4 µM,,,46.2,,54.5,
CCOc1c(Br)cc(C2C(C(=O)OC)=CN(C)C=C2C(=O)OC)cc1OC,,> 100,> 100,,> 100,,85.1,72.3,,64.1,> 100 µM,24.1,76,> 100 µM,32.8,> 100,50.4,> 100,> 100,> 100
COc1ccc2nc(-c3cc(-c4cc(OC)c(OC)c(OC)c4)n[nH]3)[nH]c2c1,,,3.69,,12.3,,,1.67,,1.66,4.31 µM,2.49,0.899,3.31 µM,2.87,12.9,2.89,23.2,2.29,8.28
CC(=O)OC(/C=C1/C=CC(=O)O1)COC(=O)c1ccccc1 (centres undefined),> 31.2,> 31.2,> 31.2,,> 31.2,,,,,,> 31.2 µM,,,,,,,,,
